Experimental data as given in patent publication US20060276537A1, “Use of ladostigil for the treatment of multiple sclerosis” (priority 2005, published 2006).

Tested on: chronic progressive EAE induced by pMOG35-55 in C57BL/6 mice
Test: MOG-induced chronic progressive EAE in C57BL/6 mice, clinical scoring
Format: in vivo
Conditions: gavage once daily from day 0; for % Inhibition: vs control group mean score
Procedure: MOG (Myelin oligodendrocyte glycoprotein) is a member of the immunoglobulin superfamily expressed exclusively in CNS myelin. It is one of the most encephalitogenic proteins and is widely used to induce EAE in different rodent strains. In C57BL/6 mice, immunization with the MOG peptide pMOG35-55 in CFA induces chronic progressive EAE. Ladostigil was tested in this model in order to assess its ability to inhibit the disease.
EAE was induced by subcutaneous injection of encephalitogenic emulsion at a volume of 0.2 ml/mouse in the right flank. On the day of induction, pertussis toxin was injected intraperitoneally at a volume dose of 0.2 ml/mouse. The injection of the pertussis toxin was repeated after 48 hours. At the end of the experiment, 6-7 brains from control and the ladostigil groups were dissected and frozen at −70° C. for CHE (cholinesterase) determination and 6-7 brains were dissected and frozen for MAO (monoamine oxidase) determination. Before sacrifice, blood for ChE determination was taken on heparine, hemolysed 1/20 in 10 mM cold phosphate buffer pH=6.0 and stored at −70° C. until the assay.
90 female C57Bl/6 mice 8-10 weeks old obtained from Harlan animal breeding center were used in the study. Mice were allocated randomly into 6 groups:
Both compounds were administered by gavage once daily during the whole experiment (30 days) at a volume of 0.2 ml/mouse.
The mice were observed daily from the 10th day post-EAE induction and the EAE clinical signs were scored. The scores were recorded on observation cards according to the grades described in Table 5:
The number of sick animals (animals with a score of ≧1 at any point) in each group was summed.
The incidence of disease and the % activity were calculated as follows: [formula] [formula] [formula]
The maximal scores of all mice in each group were summed.
The mean maximal score and the % activity of the group were calculated as follows: [formula] [formula] [formula]
The individual scores (IMS) of each of the mice during the observation period were summed (score 6 will be counted forward).
The GMS of the group and its % activity were calculated as follows: [formula] [formula] [formula]
Their dates of onset were calculated as day of termination +1.

## C#CCN[C@@H]1CCc2ccc(OC(=O)N(C)CC)cc21 [Ladostigil, R(+)-6-(N-methyl,N-ethyl-carbamoyloxy)-N′-propargyl-1-aminoindan]
Ladostigil salt 10.2 mg/kg
  Group Mean Score: 2.75 ± 1.3
  Incidence: 15/15
  Mean Maximal Score: 4.33 ± 1.1
  Mean Onset: 12.0 ± 2.4 days
  Mortality: 2/15
  % Inhibition: 9.5%
Ladostigil salt 25.5 mg/kg
  Group Mean Score: 3.08 ± 1.4
  Incidence: 15/15
  Mean Disease Duration: 35.3 ± 8.8 days
  Mean Maximal Score: 4.33 ± 1.0
  Mean Onset: 11.6 ± 2.1 days
  Mortality: 3/15
  % Inhibition: −1.3%
Ladostigil salt 51 mg/kg
  Group Mean Score: 2.26 ± 1.1
  Incidence: 15/15
  Mean Disease Duration: 31.3 ± 13.2 days
  Mean Maximal Score: 3.83 ± 1.1
  Mean Onset: 11.4 ± 3.1 days
  Mortality: 1/15
  % Inhibition: 25.7%
Ladostigil salt 70.1 mg/kg
  Incidence: 15/15
  Mean Maximal Score: 3.73 ± 1.0
  Mean Onset: 11.6 ± 2.3 days
  Mortality: 1/15
  % Inhibition: 33.2%
